Assays:
E. faecalis 945 = assay: agar diffusion test (Test System II, multi-resistant germs); type: cell-based, Enterococcus faecalis; parameters: key: r = resistant (no detectable zone of inhibition)
Outline: (§1)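 Each plate of Müller-Hinton agar II, inoculated with a saline suspension at McFarland 0.5, carried three discs loaded with 10, 50 and 100 μg of substance. Incubation was 18-20 h at 37 °C, with inhibition zones then measured.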

[1] = logP value by HPLC according to Donovan et al.; details: HPLC, methanol/0.1% phosphoric acid pH 2
Method: • Operating temperature 18-24° C. • Flow 1.5 mL/min • Linear gradient (methanol/0.1% phosphoric acid pH 2) from 10% to 100% methanol in 9.4 min, equilibrium time between 2 runs 6 min
ca. 0.5 mg of analyte is added to 0.5 ml of a standard solution (440 mg methyl phenyl sulfonate and 380 μl toluene in 150 mL methanol). 2 μl of this sample solution is injected.
Because the distribution coefficients of the two standards running in each test are known, the distribution coefficient of the analytes can be determined from the relationships of the analyte/standard retention times.

S. aureus ATCC 6538 = assay: agar diffusion test (Test System II, multi-resistant germs); type: cell-based, Staphylococcus aureus
Outline: as §1

S. aureus 38418 = assay: as above; type: cell-based, Staphylococcus aureus
Outline: as §1

S. epidermidis 847 = assay: as above; type: cell-based, Staphylococcus epidermidis
Outline: as §1

S. epidermidis 1068 = assay: as above; type: cell-based, Staphylococcus epidermidis
Outline: as §1

S. epidermidis 1071 = assay: as above; type: cell-based, Staphylococcus epidermidis
Outline: as §1

S. epidermidis 563 = assay: as above; type: cell-based, Staphylococcus epidermidis
Outline: as §1

With `O=C(O)C1=C(Cl)CSC2C(NC(=O)C(NC3=C(C(=O)NCCO)C(=O)C=CC3=O)c3ccccc3)C(=O)N12` (stereo not shown) [1i, 3-chlorine-7-{2-[2-(2-hydroxyethylcarbamoyl)-3,6-dioxocyclohexa-1,4-dienylamino]-2-phenyl-acetylamino}-8-oxo-1-thia-5-azabicyclo[4.2.0]oct-3-en-4-carboxylic acid] as the compound, how does the “Diameter of zone of inhibition” value (E. faecalis 945; Quantity n 0.029) read?
Its value is “r”.

What about the “Diameter of zone of inhibition” value (E. faecalis 945; Quantity n 0.14) of the same compound?
The value was “r”.

What about the “Diameter of zone of inhibition” value (E. faecalis 945; Quantity n 0.29) of the same compound?
The value was “r”.

What about the logP value [1] of the same compound?
The logP value was 1.81.

And the “Diameter of zone of inhibition” value (S. aureus ATCC 6538; Quantity n 0.029)?
The value was 26 mm.

What about the “Diameter of zone of inhibition” value (S. aureus ATCC 6538; Quantity n 0.14) of the same compound?
Its value is 34 mm.

What about the “Diameter of zone of inhibition” value (S. aureus ATCC 6538; Quantity n 0.29) of the same compound?
Its value is 36 mm.

What about the “Diameter of zone of inhibition” value (S. aureus 38418; Quantity n [mol] 0.029) of the same compound?
Its value is 20 mm.

And the “Diameter of zone of inhibition” value (S. aureus 38418; Quantity n [mol] 0.14)?
Its value is 30 mm.

What about the “Diameter of zone of inhibition” value (S. aureus 38418; Quantity n [mol] 0.29) of the same compound?
Its value is 34 mm.

And the “Diameter of zone of inhibition” value (S. epidermidis 847; Quantity n [mol] 0.029)?
The value was 12 mm.

What about the “Diameter of zone of inhibition” value (S. epidermidis 847; Quantity n [mol] 0.14) of the same compound?
The value was 20 mm.

What about the “Diameter of zone of inhibition” value (S. epidermidis 847; Quantity n [mol] 0.29) of the same compound?
The value was 24 mm.

And the “Diameter of zone of inhibition” value (S. epidermidis 1068; Quantity n 0.029)?
Its value is 12 mm.

And the “Diameter of zone of inhibition” value (S. epidermidis 1068; Quantity n 0.14)?
The value was 18 mm.

What about the “Diameter of zone of inhibition” value (S. epidermidis 1068; Quantity n 0.29) of the same compound?
The value was 22 mm.

What about the “Diameter of zone of inhibition” value (S. epidermidis 1071; Quantity n 0.029) of the same compound?
The value was 14 mm.

And the “Diameter of zone of inhibition” value (S. epidermidis 1071; Quantity n 0.14)?
Its value is 22 mm.

And the “Diameter of zone of inhibition” value (S. epidermidis 1071; Quantity n 0.29)?
The value was 26 mm.

And the “Diameter of zone of inhibition” value (S. epidermidis 563; Quantity n 0.029)?
The value was 12 mm.

What about the “Diameter of zone of inhibition” value (S. epidermidis 563; Quantity n 0.14) of the same compound?
Its value is 22 mm.

What about the “Diameter of zone of inhibition” value (S. epidermidis 563; Quantity n 0.29) of the same compound?
The value was 24 mm.
